Assay results published in patent US20030224470A1, “Method of diagnosing statin myopathy” (priority 2002, published 2003).

Columns and labels:
[1] = Clinical muscle symptoms during statin therapy; assay type: in vivo, patients
Source text: (§1) The association of increased levels of 3MGA with statin myopathy was discovered in a study of four patients identified among the first 20 patients randomly assigned in an ongoing, unfunded, doubleblinded, crossover clinical trial that had been approved by an investigational review board. Patients who had muscle symptoms during statin therapy that resolved when they were not receiving statins for 2 weeks were recruited from a clinical research group. Eligible patients had to have normal creatine kinase levels while they were experiencing symptoms. End points were 1) whether patients could accurately identify blinded statin therapy, 2) standard measures of functional capacity and muscle strength, 3) standard measures of biochemical properties of blood, urine and muscle specimens and 4) analysis of muscle biopsy for pathology. The muscular strength tests during both placebo use and statin therapy included hip abduction and flexion measured by Nicholas Manual Muscle Tester (Lafayette Instrument Co., Lafayette, Ind.) The standard measures for biochemical alterations included blood, urine and muscle biopsy analysis for levels of endogenous factors and drug. Analysis of muscle biopsy for pathology included general histology of the samples and detection of various markers involved in metabolism.

[2] = Muscular strength tests: hip abduction and flexion, Nicholas Manual Muscle Tester; assay type: in vivo, patients
Source text: as §1

[3] = Serum creatine kinase level during statin therapy; assay type: in vivo, patients; settings: normal range 0-3.26 μkat/L
Source text: as §1
The creatine kinase level remained normal in these patients every time they became myopathic both before and during the trial. The presence of a normal creatine kinase level has previously been used to argue against myopathy in patients with muscle symptoms during statin therapy.

[4] = Urine organic acid analysis for 3-methylglutaconic acid (3MGA); assay type: in vivo, patients
Statin level in patients = assay type: in vivo
Source text: as §1
All four patients in the study had normal statin levels (TABLE 1).

[5] = Muscle biopsy pathology (histology, metabolic markers); assay type: in vivo, patients; settings: Patient 3; during atorvastatin therapy
Source text: as §1, with “metabolism. […]” for “metabolism.”

[6] = Patient 2, lovastatin 40 mg/d, simvastatin added to niacin
[7] = Patient 1, Cerivistatin 0.4 mg/d listed first
[8] = Patient 3, Atorvastatin 20 mg/d
[9] = Patient 4, atorvastatin 10 mg/d
[10] = Patient 1, 4 years of simvastatin therapy, brief trial of atorvastatin

## CC[C@H](C)C(=O)O[C@H]1C[C@@H](C)C=C2C=C[C@H](C)[C@H](CC[C@@H]3C[C@@H](O)CC(=O)O3)[C@H]21 [lovastatin]
[1]; [6]
  Muscle symptoms during therapy: muscle pains and weakness

## COCc1c(C(C)C)nc(C(C)C)c(/C=C/[C@@H](O)C[C@@H](O)CC(=O)O)c1-c1ccc(F)cc1 [Cerivistatin]
[2]; [7]
  Hip Abduction (Strength) On Statin: 4.1 kg
  Hip Flexion (Strength) On Statin: 8.0 kg
[3]; Patient 1
  Creatine Kinase Level during Statin Therapy: 0.63 μkat/L
[4]; Patient 1, normal range 0-9 mmol/mol creatinine
  3-Methylglutaconic acid levels On Statin: 21 mmol/mol

## CC(C)c1c(C(=O)Nc2ccccc2)c(-c2ccccc2)c(-c2ccc(F)cc2)n1CC[C@@H](O)C[C@@H](O)CC(=O)O [Atorvastatin]
[2]; [8]
  Hip Abduction (Strength) On Statin: 6.3 kg
  Hip Flexion (Strength) On Statin: 14.3 kg
[2]; [9]
  Hip Abduction (Strength) On Statin: 12.9 kg
  Hip Flexion (Strength) On Statin: 24.1 kg
Statin level in patients; [8]
  Statin Level: 10.9 (Ator- ngEq/cm^3
[3]; [8]
  Creatine Kinase Level during Statin Therapy: 2.30 μkat/L
[3]; Patient 4, Atorvastatin 10 mg/d
  Creatine Kinase Level during Statin Therapy: 1.39 μkat/L
[5]
  Muscle biopsy findings during therapy: increased lipid droplets, ragged red fibers, and cytochrome oxidase—negative muscle fibers
[1]; [10]
  Muscle symptoms during therapy: Symptoms did not change
[1]; Patient 3, atorvastatin 20 mg/d for 2 years
  Muscle symptoms during therapy: aching and weakness of the shoulder, hip, and thigh
[1]; [9]
  Muscle symptoms during therapy: leg aches when climbing stairs
  Time to onset of leg aches: ≤ 2 weeks

## CCC(C)(C)C(=O)O[C@H]1C[C@@H](C)C=C2C=C[C@H](C)[C@H](CC[C@@H]3C[C@@H](O)CC(=O)O3)[C@H]21 [Simvastatin]
[2]; Patient 2, Simvastatin 40 mg/d
  Hip Abduction (Strength) On Statin: 11.6 kg
  Hip Flexion (Strength) On Statin: 9.6 kg
Statin level in patients; Patient 1
  Statin Level: 1.4 (Sim- ngEq/cm^3
Statin level in patients; Patient 2, Simvastatin 40 mg/d
  Statin Level: 16.3 (Sim- ngEq/cm^3
[3]; Patient 2, Simvastatin 40 mg/d
  Creatine Kinase Level during Statin Therapy: 0.73 μkat/L
[4]; Patient 2, Simvastatin 40 mg/d, normal range 0-9 mmol/mol creatinine
  3-Methylglutaconic acid levels On Statin: 11 mmol/mol
[1]; [10]
  Muscle symptoms during therapy: muscle aches and decreased exercise tolerance
[1]; [6]
  Muscle symptoms during therapy: muscle aches, weakness, and shortness of breath with exertion
